Reference: US20100035257A1 (GENERAL HOSPITAL, published 2010)

What was measured:
[1] = system: PUMA and NOXA; assay: QRT-PCR of pro-apoptotic effector genes after drug treatment; format: cell-based, human
Protocol: ORT-PCR analysis. Total RNA from cells was extracted using STAT-60 RNA isolation solution (Tel-Test Inc., Friendswood, USA) according to manufacturer's protocol. First-strand cDNA was synthesized from total RNA using random hexamer primers and the SuperScript II system for RT-PCR (Invitrogen). Gene expression levels were measured by real-time QRT-PCR using the iQ SYBR Green Supermix reagent (Bio-Rad) and an OPTICON™ real-time PCR detector system (MJ Research). Data analysis was performed using OPTICON MONITOR™ Analysis Software V1.08 (MJ Research). The expression of each gene was normalized to GAPDH or B2M as a reference. The relative copy numbers were calculated from an 8-point standard curve generated from a ten fold serial dilution of full length cDNA constructs as described previously (15).
Specific forward and reverse primers (respectively) for ΔNp63 were: 5′-[…]-3′ and 5′-[…]-3′; for TAp63 were 5′-[…]-3′ and 5′-[…]-3′; for TAp73 were 5′-[…]-3′ and […]-3′; for ΔNp73 were 5′-[…]-3′ and 5′-[…]-3′; for GAPDH were: 5′-[…]-3′ and 5′-[…]-3′ and for detection of B2M were 5′-[…]-3′ and 5′-[…]-3′. The conditions for all QRT-PCR reactions were: 3 min at 94° C., followed by 40 sec at 94° C., 40 sec at 60° C. and 25 sec at 72° C. for 40 cycles. All PCR products were confirmed by the presence of a single-peak upon melting-curve analysis and by gel electrophoresis. No-template (water) reaction mixtures and “no reverse transcriptase” mixtures were performed on all samples as negative controls. All experiments were performed in duplicate.

[2] = system: MCF-10A cells; assay: Chemosensitivity assay (MTT cell viability); format: cell-based, human; conditions: for effect of ectopic TAp73β expression on sensitivity: retroviral TAp73β vs control vector
Protocol: (§1) Chemosensitivity assay. Dose-response curves and IC50 values were determined using the methyl thiazolyl tetrazolium (MTT) cell viability assay as described previously (52). Cells were seeded into 96-well microtiter plates for 24 hours at a density of 5×10^3 per well. Serial drug dilutions were prepared in medium immediately before each assay and viable cell masses following 3 days or 5 days of drug exposure were determined by cell-mediated MTT reduction. Cell growth as well as drug activity were determined by measuring absorbance at 550 nm using an Anthos Labtec systems plate reader.

[3] = system: HCC-1937 cells; assay: Chemosensitivity assay (MTT cell viability); format: cell-based, human
Protocol: as §1

[4] = system: MDA-MB-468 cells; assay: Chemosensitivity assay (MTT cell viability); format: cell-based, human
Protocol: as §1

[5] = system: ΔNp63α/TAp73 complex; assay: Co-immunoprecipitation of the ΔNp63α/TAp73 complex
[6] = system: TAp73; assay: IP/immunoblot for p73 tyrosine phosphorylation
[7] = system: MCF-7 cells; assay: Chemosensitivity assay (MTT cell viability); format: cell-based, human; conditions: TAp73 knockdown
Protocol: as §1

[8] = system: human breast cancer-derived cell lines; assay: p73/p63 biomarker and in vitro cisplatin sensitivity; format: cell-based; conditions: Biomarker Positive cell lines
Protocol: as §1
Correlation of DNp63/TAp73 biomarker expression and cisplatin sensitivity in vitro. The inventors next established the threshold for DNp63/TAp73 biomarker expression that reflected the biochemcially-defined cisplatin sensitivity pathway. The inventors defined biomarker positivity as a DNp63/TAp73 ratio >2, a value that corresponds to the molar ratio of DNp63 required to inactivate essentially all (>99%) pro-apoptotic TAp73 through DNp63/TAp73 hetero-tetramer formation. The inventors assessed the ability of this defined biomarker threshold to predict cisplatin sensitivity in a limited number of human breast cancer-derived cell lines. As shown below in Table 2, the positively for the biomarker correlated with cisplatin sensitivity in these cells. […]

[9] = target: T1, Y99F TAp73α (human, UniProt O15350 1-636); assay: IP for p63 or p73 with immunoblot, MCF-10A cells with retroviral Y99F TAp73α, after cisplatin
T1 construct: Expressed via retrovirus in MCF-10A cells; also called site-specific Y99F mutant TAp73α
T1 sequence: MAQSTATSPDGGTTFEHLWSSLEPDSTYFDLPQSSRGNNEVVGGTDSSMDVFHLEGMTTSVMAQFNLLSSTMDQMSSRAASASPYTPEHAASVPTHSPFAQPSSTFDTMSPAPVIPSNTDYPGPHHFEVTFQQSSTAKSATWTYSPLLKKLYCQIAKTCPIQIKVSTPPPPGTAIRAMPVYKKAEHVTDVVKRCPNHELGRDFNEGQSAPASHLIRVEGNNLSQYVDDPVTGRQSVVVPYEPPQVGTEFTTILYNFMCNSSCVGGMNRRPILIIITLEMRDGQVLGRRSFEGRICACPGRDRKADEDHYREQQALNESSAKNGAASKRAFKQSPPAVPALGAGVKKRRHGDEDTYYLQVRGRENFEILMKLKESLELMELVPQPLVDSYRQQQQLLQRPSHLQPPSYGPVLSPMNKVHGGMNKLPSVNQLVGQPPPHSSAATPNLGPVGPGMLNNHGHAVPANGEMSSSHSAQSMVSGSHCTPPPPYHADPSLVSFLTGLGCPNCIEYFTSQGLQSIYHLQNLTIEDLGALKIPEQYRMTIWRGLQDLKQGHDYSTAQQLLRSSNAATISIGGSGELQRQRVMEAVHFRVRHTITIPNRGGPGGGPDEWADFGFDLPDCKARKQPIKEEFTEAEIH

[10] = target: T2, wild-type TAp73α (retrovirally expressed in MCF-10A cells) (human, UniProt O15350 1-636); assay: co-IP, MCF-10A cells, untreated
T2 construct: Ectopic wild-type TAp73α expressed via retrovirus in MCF-10A cells; It is tyrosine phosphorylated after cisplatin treatment; Construct limits and tags are not described; also called retroviral TAp73α
T2 sequence: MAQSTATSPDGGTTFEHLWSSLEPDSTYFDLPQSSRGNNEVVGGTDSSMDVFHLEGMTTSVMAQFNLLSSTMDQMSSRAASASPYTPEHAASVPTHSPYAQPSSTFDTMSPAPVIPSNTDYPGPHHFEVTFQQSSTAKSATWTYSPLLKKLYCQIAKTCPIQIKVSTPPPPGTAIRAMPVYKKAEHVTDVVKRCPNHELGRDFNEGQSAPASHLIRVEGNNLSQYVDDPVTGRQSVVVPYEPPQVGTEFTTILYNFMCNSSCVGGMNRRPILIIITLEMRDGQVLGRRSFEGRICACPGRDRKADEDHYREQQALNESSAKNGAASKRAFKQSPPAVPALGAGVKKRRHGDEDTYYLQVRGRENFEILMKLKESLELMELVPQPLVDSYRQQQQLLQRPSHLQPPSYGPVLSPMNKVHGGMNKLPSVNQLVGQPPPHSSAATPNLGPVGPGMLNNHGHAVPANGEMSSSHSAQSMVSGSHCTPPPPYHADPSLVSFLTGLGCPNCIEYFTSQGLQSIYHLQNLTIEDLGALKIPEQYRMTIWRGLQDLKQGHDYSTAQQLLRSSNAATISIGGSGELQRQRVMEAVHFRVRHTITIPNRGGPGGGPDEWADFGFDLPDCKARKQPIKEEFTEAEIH

[11] = MCF-10A cells, cisplatin treatment

With `COc1cccc2c1C(=O)c1c(O)c3c(c(O)c1C2=O)C[C@@](O)(C(=O)CO)C[C@@H]3O[C@H]1C[C@H](N)[C@H](O)[C@H](C)O1` [doxorubicin] the “induction of other pro-apoptotic effectors” value ([1]; equally toxic concentration) was “no significant induction”, the “increase in PUMA” value ([1]; equally toxic concentration as cisplatin) was 2 fold and the “effect of ectopic TAp73β expression on sensitivity” value (“effect of ectopic TAp73β expression” for short) [2] was “did not significantly enhance sensitivity”.

`Cc1ccc(NC(=O)c2ccc(CN3CCN(C)CC3)cc2)cc1Nc1nccc(-c2cccnc2)n1` [STI-571, Imatinib] was tested, and the “baseline NOXA expression” value ([1]; HCC-1937 and MDA-MB-468 cells) was “no effect”, the “p73-dependent induction of NOXA following cisplatin treatment” value ([1]; pretreatment, HCC-1937 and MDA-MB-468 cells, 6 hours) was “blocked” and the cell proliferation ([3]; HCC-1937, at the dose used in these assays) was “did not affect”. The “rescue from cell death induced by cisplatin” value ([3]; pretreatment, then cisplatin, HCC-1937) was “substantial rescue”, the cell proliferation ([4]; MDA-MB-468, at the dose used in these assays) was “did not affect” and the “rescue from cell death induced by cisplatin” value ([4]; pretreatment, then cisplatin, MDA-MB-468) was “substantial rescue”.

`CC(=O)O[C@H]1C(=O)[C@@]2(C)[C@H]([C@H](OC(=O)c3ccccc3)[C@]3(O)C[C@H](OC(=O)[C@H](O)[C@@H](NC(=O)c4ccccc4)c4ccccc4)C(C)=C1C3(C)C)[C@]1(OC(C)=O)CO[C@@H]1C[C@@H]2O` [paclitaxel] was tested, and the “effect of ectopic TAp73β expression” value [2] was “did not significantly enhance sensitivity”.

In the case of `N.N.[Cl][Pt][Cl]` [cisplatin, cis-diaminedichloroplatinuim (II)], the “dissociation of Y99F TAp73 from ΔNp63α” value ([5]; MCF-10A cells, 6 hours) is reported as “essentially no dissociation”, the “dissociation of ΔNp63α from wild-type TAp73” value ([5]; MCF-10A cells, 6 hours) is reported as “substantial dissociation” and the “dissociation of the ΔNp63α/TAp73 complex” value ([5]; endogenous proteins, breast cancer cells, following treatment) is reported as “substantial dissociation”. The “induction of PUMA and NOXA” value ([1]; HCC-1937 cells, following treatment) was “robustly induced”, the “time to TAp73-dependent transcription of PUMA and NOXA” value ([1]; after cisplatin treatment) was no more than 2 h and the “tyrosine phosphorylation of p73” value ([6]; HCC-1937 and MB-468 cells, maximal at 6 hours) was “tyrosine phosphorylation of p73 was observed”. For the same molecule, the “phosphorylation of Y99F TAp73” value [6, 11] was “little detectable phosphorylation”, the “phosphorylation of ectopic wild-type TAp73” value [6, 11] was “strongly phosphorylated” and the “effect of Y99F TAp73 expression on sensitivity” value [2] was “little, if any, effect”. The “effect of wild-type TAp73 expression on sensitivity” value ([2]; P<0.01) was “significantly increased sensitivity”, the “effect of ectopic TAp73β expression” value [2] was “significantly increased the sensitivity” and the IC70 dose ([3]; HCC-1937 cells) was 6.6 µM. For the same molecule, the “effect of TAp73 knockdown on the IC50” value ([3]; TAp73-directed lentiviral shRNA vs vector control, HCC-1937) was “more than 10 fold”, the “TAp73 as mediator of sensitivity” value [7] was “not a mediator of sensitivity” and the “effect of TAp73 knockdown on the IC50” value ([4]; TAp73-directed lentiviral shRNA vs vector control, MDA MB-468) was “more than 10 fold”. The “Percent Sensitive” value [8] was 57% ( 4/7).

B1: ΔNp63α (other)
chain: MLYLENNAQTQFSEPQYTNLGLLNSMDQQIQNGSSSTSPYNTDHAQNSVTAPSPYAQPSSTFDALSPSPAIPSNTDYPGPHSFDVSFQQSSTAKSATWTYSTELKKLYCQIAKTCPIQIKVMTPPPQGAVIRAMPVYKKAEHVTEVVKRCPNHELSREFNEGQIAPPSHLIRVEGNSHAQYVEDPITGRQSVLVPYEPPQVGTEFTTVLYNFMCNSSCVGGMNRRPILIIVTLETRDGQVLGRRCFEARICACPGRDRKADEDSIRKQQVSDSTKNGDGTKRPFRQNTHGIQMTSIKKRRSPDDELLYLPVRGRETYEMLLKIKESLELMQYLPQHTIETYRQQQQQQHQHLLQKQTSIQSPSSYGNSSPPLNKMNSMNKLPSVSQLINPQQRNALTPTTIPDGMGANIPMMGTHMPMAGDMNGLSPTQALPPPLSMPSTSHCTPPPPYPTDCSIVSFLARLGCSSCLDYFTTQGLTTIYQIEHYSMDDLASLKIPEQFRHAIWKGILDHRQLHEFSSPSHLLRTPSSASTVSVGSSETRGERVIDAVRFTLRQTISFPPRDEWNDFNFDMDARRNKQQRIKEEGE
notes: The text mentions hetero-tetramers with TAp73, but the stoichiometry was not measured; also called DNp63a; DNp63α
B1: binds [9]; binds [10].
